The values that follow come from ChEMBL document CHEMBL1201862, “PubChem BioAssay data set” (2004).

Structures are written as SMILES. Active and inactive are the calls of the source.

Assay [1] concerns the target T1, Oxysterols receptor LXR-beta (Homo sapiens, UniProt P55055).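 Further: Cell-based luminescence dose-response assay of agonist activity at LXR, run as a confirmatory counterscreen to a daf-12 agonist screen; HEK293 cells with Gal4-LXR fusion and GAL4-driven luciferase reporter; agonist potency from rising luciferase signal of a Gal4-LXR reporter.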
T1 sequence (P55055 whole entry): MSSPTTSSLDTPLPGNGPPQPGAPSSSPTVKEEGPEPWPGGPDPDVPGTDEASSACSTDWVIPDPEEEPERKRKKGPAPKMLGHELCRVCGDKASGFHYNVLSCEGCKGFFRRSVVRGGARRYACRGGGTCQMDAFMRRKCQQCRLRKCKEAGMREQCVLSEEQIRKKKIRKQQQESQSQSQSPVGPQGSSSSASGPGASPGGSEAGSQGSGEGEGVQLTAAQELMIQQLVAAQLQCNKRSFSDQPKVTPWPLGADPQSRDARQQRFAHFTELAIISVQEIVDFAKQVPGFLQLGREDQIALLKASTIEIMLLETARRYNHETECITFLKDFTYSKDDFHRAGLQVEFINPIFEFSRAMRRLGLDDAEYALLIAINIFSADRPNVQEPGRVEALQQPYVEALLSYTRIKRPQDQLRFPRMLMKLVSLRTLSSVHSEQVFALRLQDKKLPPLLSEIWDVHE
Format: functional, cell-based.

Assay [2] is described as follows: cells.
A short description of assay [3]: microbe, parasite or virus in culture. In kind it is functional. The conditions noted are these: Mycobacterium tuberculosis.
Assay [4] can be described thus: Luminescence-based cell-based high throughput dose response assay to identify activators of the DAF-12 from the parasite S. stercoralis (ssDAF-12). Format: functional.
For assay [5], the target named is Disintegrin and metalloproteinase domain-containing protein 17 (Homo sapiens, UniProt P78536). The experiment in a line: exosite inhibitors of ADAM17, dose response, biochemical (AID 743260).
Disintegrin and metalloproteinase domain-containing protein 17, sequence (P78536 whole entry, the tested form may be a part): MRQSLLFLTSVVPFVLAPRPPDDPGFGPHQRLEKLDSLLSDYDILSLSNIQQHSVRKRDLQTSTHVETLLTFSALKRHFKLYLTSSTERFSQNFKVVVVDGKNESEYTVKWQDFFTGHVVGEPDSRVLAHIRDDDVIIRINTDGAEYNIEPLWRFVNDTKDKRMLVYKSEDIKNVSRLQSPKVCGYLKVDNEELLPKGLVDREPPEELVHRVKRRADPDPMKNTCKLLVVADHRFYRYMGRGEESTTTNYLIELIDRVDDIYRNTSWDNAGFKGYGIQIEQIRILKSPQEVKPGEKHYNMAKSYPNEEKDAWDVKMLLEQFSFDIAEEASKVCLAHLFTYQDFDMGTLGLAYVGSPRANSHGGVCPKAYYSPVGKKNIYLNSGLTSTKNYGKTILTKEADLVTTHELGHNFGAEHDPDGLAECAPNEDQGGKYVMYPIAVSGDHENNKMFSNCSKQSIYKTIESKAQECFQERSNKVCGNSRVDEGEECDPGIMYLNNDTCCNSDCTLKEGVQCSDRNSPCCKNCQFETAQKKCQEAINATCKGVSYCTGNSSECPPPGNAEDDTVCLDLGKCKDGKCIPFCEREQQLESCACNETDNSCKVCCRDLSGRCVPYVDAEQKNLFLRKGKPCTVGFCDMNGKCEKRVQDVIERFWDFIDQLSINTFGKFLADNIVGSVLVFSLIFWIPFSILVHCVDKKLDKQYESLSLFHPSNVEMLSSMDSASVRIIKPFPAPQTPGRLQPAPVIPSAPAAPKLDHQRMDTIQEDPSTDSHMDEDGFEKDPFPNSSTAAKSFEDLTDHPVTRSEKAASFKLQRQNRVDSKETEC
Assay [6] is described as follows: ADAM10 protease inhibitors, dose response, selectivity assay for ADAM17 exosite inhibitor project, biochemical, FRET peptide substrate, recombinant human ADAM10 (AID 743259).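 Further: ADAM10 enzyme cleaving a FRET peptide substrate.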
The test system of assay [7] is H9c2. The experiment in a line: cells. As to conditions: Rattus norvegicus, H9c2, Myocardium. Format: functional, cell-based.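 Further: confirmatory concentration-response retest of ultra-high-throughput screening hits for modulation of myocardial damage; cell death induced by hydrogen peroxide oxidative stress; compound pretreatment for 60 min then peroxide exposure for 2 h; potency is for protecting the cells against peroxide damage rather than for killing them.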
Assay [8] has as its target Paired box protein Pax-8 (Homo sapiens, UniProt Q06710). The experiment in a line: inhibitors of PAX8-driven TPO luciferase reporter, dose response, RMG-I cells, cherry-pick (AID 687027).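 Further: luciferase reporter driven by Pax8 target thyroperoxidase promoter measured by SteadyGlo luminescence.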 In kind it is functional, cell-based.
Assay [9] can be described thus: non-specific cell cytotoxicity, dose response, cytotoxicity control for PAX8 inhibitor project, plate reader, dry powder samples (AID 743021). In kind it is functional, cell-based.
The target of assay [10] is T2, RNA-binding protein pos-1 (Caenorhabditis elegans, UniProt G5EF15).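 Further: purified POS-1 fused to maltose binding protein made in E. coli; potency of compounds blocking POS-1 binding to fluorescent RNA.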
T2 sequence (G5EF15 whole entry): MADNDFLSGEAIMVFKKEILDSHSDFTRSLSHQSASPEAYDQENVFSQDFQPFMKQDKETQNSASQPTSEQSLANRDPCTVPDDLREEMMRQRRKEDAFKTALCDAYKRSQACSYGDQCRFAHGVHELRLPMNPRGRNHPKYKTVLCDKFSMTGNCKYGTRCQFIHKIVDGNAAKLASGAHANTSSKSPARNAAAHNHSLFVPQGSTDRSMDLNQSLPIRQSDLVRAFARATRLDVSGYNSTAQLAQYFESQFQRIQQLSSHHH
The assay can be described thus: inhibitors of POS-1/mex-3 RNA binding, dose response, biochemical, fluorescence polarization (AID 1964). (In general: Fluorescence polarisation rises when a labelled molecule tumbles more slowly, as on binding a larger partner.)

Assay [11] deals with T3, Zinc finger protein mex-5 (Caenorhabditis elegans, UniProt Q9XUB2).
T3 sequence (Q9XUB2 whole entry): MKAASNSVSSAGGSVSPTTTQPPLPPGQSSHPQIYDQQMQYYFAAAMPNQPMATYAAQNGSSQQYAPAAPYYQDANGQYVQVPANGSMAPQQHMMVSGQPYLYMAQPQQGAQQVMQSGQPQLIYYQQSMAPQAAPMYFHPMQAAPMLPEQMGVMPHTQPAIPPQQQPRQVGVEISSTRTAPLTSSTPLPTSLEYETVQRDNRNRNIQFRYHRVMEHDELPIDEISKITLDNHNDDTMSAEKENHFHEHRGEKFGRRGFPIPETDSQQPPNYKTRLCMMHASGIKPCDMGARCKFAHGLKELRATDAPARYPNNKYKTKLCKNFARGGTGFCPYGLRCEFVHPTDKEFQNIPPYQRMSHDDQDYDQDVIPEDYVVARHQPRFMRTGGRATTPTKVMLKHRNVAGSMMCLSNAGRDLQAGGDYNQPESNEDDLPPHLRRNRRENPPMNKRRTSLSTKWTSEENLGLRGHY
The assay can be described thus: MEX-5/TCR-2 RNA interaction inhibitors, dose response, biochemical, C. elegans, fluorescence polarization (AID 1960).

For assay [12], the target named is Albumin (Bos taurus, UniProt P02769). The experiment in a line: Counterscreen for inhibitors of T-cell receptor (TCR)-CD3 interaction: Fluorescence-based biochemical high throughput dose response assay to identify inhibitors of T-cell receptor (TCR)-CD3 interaction using a TAMRA-labeled BSA probe. Format: functional. A general note: A counterscreen serves to expose hits that act by an unwanted route or on another target.
Albumin, sequence (P02769 whole entry): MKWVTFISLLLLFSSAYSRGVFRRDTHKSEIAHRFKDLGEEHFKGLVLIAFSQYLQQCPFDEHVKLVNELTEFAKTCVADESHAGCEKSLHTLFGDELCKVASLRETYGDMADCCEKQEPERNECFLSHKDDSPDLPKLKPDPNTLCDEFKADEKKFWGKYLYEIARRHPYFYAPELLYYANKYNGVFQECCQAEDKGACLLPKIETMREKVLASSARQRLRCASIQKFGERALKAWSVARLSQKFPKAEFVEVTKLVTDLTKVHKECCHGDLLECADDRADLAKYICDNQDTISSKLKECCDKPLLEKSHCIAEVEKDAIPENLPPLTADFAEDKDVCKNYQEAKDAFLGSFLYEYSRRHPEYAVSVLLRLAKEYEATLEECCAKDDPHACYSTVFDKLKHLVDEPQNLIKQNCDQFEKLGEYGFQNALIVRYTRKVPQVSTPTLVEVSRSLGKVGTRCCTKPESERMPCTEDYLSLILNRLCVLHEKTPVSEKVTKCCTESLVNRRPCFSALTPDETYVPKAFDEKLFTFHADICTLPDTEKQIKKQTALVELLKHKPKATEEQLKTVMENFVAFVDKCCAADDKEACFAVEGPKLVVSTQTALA

Assay [13] is described as follows: inhibitors of PGC1a acetylation in cells, dose response, cell-based, cherry-picked samples (AID 720514).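 Further: potency may reflect raised or lowered acetylation signal.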 Format: functional.
Assay [14] is described as follows: P. falciparum 3D7-ScDHODH growth inhibitors, dose response, SYBR Green, dry powder samples (AID 1159570).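 Further: parasite growth measured after 72 hours of compound exposure.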 Format: functional, cell-based.
The nature of assay [15]: HepG2 cell cytotoxicity, dose response, cytotoxicity control, plate reader, dry powder samples (AID 1159569).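 Further: inhibitor potency with signal falling toward the positive control level.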 Format: functional, cell-based.
The nature of assay [16]: P. falciparum Dd2 growth inhibitors, dose response, SYBR Green, cherry-picked samples (AID 1159567). In kind it is functional, cell-based.
Assay [17] can be described thus: P. falciparum Dd2 growth inhibitors, dose response, SYBR Green, dry powder samples (AID 1159566).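 Further: potency for growth inhibition with lower SYBR green DNA signal.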 In kind it is functional, cell-based.
Assay [18] is described as follows: HepG2 cell cytotoxicity, dose response, cytotoxicity control, cherry-picked samples (AID 1159577). Format: functional, cell-based.
Assay [19] in a line: P. falciparum ATP4 D1247Y mutant growth inhibitors, dose response, NITD609-resistant line, SYBR Green, dry powder (AID 1159571).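 Further: parasites synchronized at ring stage by sorbitol before testing.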 In kind it is functional, cell-based.
Assay [20] in a line: inhibitors of intracellular T. cruzi replication, confirmation, NIH3T3 host cells, beta-gal luminescence (AID 2044).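 Further: intracellular parasites grown in NIH/3T3 mouse fibroblasts as host cells; luminescent beta-galactosidase reporter signal from transgenic T. cruzi replicating inside host cells; inhibitors lower the luminescence signal.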 In kind it is functional, cell-based.
Assay [21] is described as follows: cytotoxicity toward NIH3T3 fibroblasts, dose response, counter-screen, cell-based, ATP luminescence, mouse fibroblasts (AID 2010).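 Further: cells exposed to compound for about 90 hours before reading.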 In kind it is functional.
The nature of assay [22]: cells. The source holds these as a separate data set.
For assay [23], the target named is T4, Rac GTPase-activating protein 1 (Homo sapiens, UniProt Q9H0H5).
T4 sequence (Q9H0H5 whole entry): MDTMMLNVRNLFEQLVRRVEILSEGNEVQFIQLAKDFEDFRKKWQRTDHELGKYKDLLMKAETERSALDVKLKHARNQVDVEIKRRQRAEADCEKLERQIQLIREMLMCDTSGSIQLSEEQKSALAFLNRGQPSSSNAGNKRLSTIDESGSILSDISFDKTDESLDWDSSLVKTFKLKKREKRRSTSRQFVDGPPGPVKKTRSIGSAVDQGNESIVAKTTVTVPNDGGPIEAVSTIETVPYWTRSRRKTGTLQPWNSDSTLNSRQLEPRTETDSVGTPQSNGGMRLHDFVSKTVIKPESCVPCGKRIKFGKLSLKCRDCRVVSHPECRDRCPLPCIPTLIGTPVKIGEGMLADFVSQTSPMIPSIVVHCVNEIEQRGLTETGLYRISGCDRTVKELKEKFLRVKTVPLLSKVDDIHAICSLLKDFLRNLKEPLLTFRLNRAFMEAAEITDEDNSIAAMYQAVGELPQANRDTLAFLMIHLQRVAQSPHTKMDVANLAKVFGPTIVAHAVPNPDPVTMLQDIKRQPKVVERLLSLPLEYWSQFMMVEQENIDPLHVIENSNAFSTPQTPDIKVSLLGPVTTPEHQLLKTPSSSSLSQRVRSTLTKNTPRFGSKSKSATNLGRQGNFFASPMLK
The assay can be described thus: MgcRacGAP GTPase-activating activity inhibitors, confirmation, biochemical, ADP Hunter fluorescence, primary and confirmatory (AID 624330). In kind it is functional.

Assay [24] in a line: Luminescence Cell-Based Dose Response HTS to Identify Inhibitors of 5'UTR Stem-Loop Driven Prion Protein mRNA Translation in H4 Neuroglioblastoma Cells. [Related pubchem assays: 1827 (Project Summary), 1813 (Primary HTS)]. Format: functional.
Assay [25] can be described thus: inhibitors of SNCA 5'UTR-driven reporter translation, confirmation, H4 neuroglioma cells, luminescence (AID 1988). In kind it is functional, cell-based.
In assay [26] the target is Mitogen-activated protein kinase 10 (Homo sapiens, UniProt P53779). The assay can be described thus: Dose response biochemical screening assay for inhibitors of c-Jun N-Terminal Kinase 3 (JNK3). [Related pubchem assays: 746 ].
Mitogen-activated protein kinase 10, sequence (P53779 whole entry): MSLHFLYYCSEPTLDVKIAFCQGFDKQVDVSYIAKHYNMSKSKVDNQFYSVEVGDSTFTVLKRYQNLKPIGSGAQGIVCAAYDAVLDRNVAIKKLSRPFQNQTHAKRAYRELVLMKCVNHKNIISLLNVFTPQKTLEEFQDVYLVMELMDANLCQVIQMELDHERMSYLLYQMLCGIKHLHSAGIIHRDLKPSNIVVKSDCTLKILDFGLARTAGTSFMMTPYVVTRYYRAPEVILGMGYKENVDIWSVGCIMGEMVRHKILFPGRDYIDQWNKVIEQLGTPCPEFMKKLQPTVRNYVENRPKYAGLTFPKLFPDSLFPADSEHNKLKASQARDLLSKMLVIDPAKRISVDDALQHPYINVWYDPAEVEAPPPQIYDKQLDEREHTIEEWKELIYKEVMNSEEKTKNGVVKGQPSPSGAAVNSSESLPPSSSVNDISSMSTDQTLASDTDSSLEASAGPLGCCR

Paired box protein Pax-8, sequence (Q06710 whole entry): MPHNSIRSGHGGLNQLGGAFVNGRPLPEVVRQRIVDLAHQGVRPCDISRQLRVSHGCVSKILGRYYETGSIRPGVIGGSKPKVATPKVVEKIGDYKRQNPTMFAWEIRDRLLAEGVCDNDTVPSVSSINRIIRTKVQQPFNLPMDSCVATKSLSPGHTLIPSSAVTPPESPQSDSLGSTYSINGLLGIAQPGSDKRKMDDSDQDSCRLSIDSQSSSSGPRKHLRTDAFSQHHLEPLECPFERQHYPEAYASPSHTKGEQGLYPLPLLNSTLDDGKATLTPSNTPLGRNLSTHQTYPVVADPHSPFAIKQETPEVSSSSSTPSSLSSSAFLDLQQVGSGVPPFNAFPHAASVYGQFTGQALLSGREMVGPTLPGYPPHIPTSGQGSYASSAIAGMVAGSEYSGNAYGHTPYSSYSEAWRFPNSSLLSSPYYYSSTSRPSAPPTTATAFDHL

Broadly, the EC50 is the concentration needed to bring the measured effect to its halfway point. With `Cc1ccc(-c2nnc(-c3cccc4ccccc34)o2)cc1`, the EC50 in [1] and in [2] was > 67.5 µM (inactive) throughout.
By IC50 is commonly meant the concentration that inhibits the measured activity by half. In the case of `CCc1ccc(-n2nc3cc(C)c(N)cc3n2)cc1`, the CC50 in assay [3] was > 40 µM (active). Moreover, the IC50 in [4] was > 67.5 µM (inactive). The EC50 in [1] and in assay [2] was > 67.5 µM (inactive) throughout.
In the case of `O=C1c2cccc(OCC(=O)N3CCCc4ccccc43)c2CCN1Cc1ccc(Br)cc1`, the IC50 in [5] and in assay [6] was > 69.5 µM (inactive) throughout.
As a reminder, the AC50 is the midpoint of the concentration-response curve, whichever way the signal moves. As for `CCC(c1nnnn1Cc1ccccc1)N1CCC(n2c(O)nc3ccccc32)CC1` (stereo not drawn), the IC50 in assay [7] was > 79 µM (inactive). The AC50 is 3.8 µM (active) in [8] and 41.4 µM (active) in [9].
`O=C(NNC(=O)c1cc(Cl)ccc1O)c1cccc(S(=O)(=O)N2CCOCC2)c1`: the concentration for a half-maximal effect (EC50) in assay [10] is 18.7 µM (inconclusive); in [11], 11.6 µM (active). The IC50 in assay [12] was > 94.1 µM (inactive).
For `Cc1ccc(O)c(-c2cc(C(=O)Nc3ccc(S(=O)(=O)Nc4nccc(C)n4)cc3)[nH]n2)c1`, the 50% effective concentration (EC50) in assay [10] was 13.1 µM (inconclusive); in assay [11], 6.59 µM (active). The IC50 in [12] was > 94.1 µM (inactive).
Take `C[C@@H]1CN([C@@H](C)CO)C(=O)c2c(c3ccccc3n2C)-c2ccccc2CO[C@H]1CN(C)S(=O)(=O)c1ccsc1`: the half-maximal activity concentration (AC50) in [13] was 29.2 µM (active).
For the compound `Cc1ccc(NC(=O)COC(=O)/C(=C/c2cccs2)c2cccs2)cc1S(=O)(=O)N(C)C`, the IC50 in [5] and in [6] was > 69.5 µM (inactive) each time.
With `CC(=O)Nc1sc2c(c1-c1nc3ccccc3s1)CCCN(C(C)C)C2`, the IC50 in assay [4] is > 67.5 µM (inactive).
In the case of `COc1ccccc1S(=O)(=O)N(C)C[C@@H]1Oc2cc(C#CCC3CCCC3)ccc2S(=O)(=O)N([C@H](C)CO)C[C@H]1C`, the AC50 was 0.227 µM (active) in assay [14]; 23.8 µM (active) in assay [15]; 0.309 µM (active) in [16]; 0.146 µM (active) in assay [17]; 28.6 µM (active) in [18]; 0.104 µM (active) in [19].
Turning to `CC1(c2ccccc2)CC(C)(C)N(C(=O)c2cc([N+](=O)[O-])cc([N+](=O)[O-])c2)c2ccccc21` (stereo not drawn), the EC50 in assay [20] was < 0.1 µM (active); in [21] it was 5.58 µM (active); in assay [22], 0.214 µM (active).
Regarding `Cc1cc(Cl)c(OCCOCCN2CCN(C)CC2)c(Br)c1`, the EC50 in assay [20] was < 0.1 µM (active); in assay [21] it was > 60 µM (not active); in [22] it was 0.294 µM (active). Further, the IC50 in assay [23] was 63.9 µM (active).
Regarding `Cc1ccc2c(c1)s/c(=N/C(=O)c1cccs1)n2C`, the EC50 in assay [24] was 4.15 µM (active); in [25], 4.79 µM (active); in [1] it was > 67.6 µM (inactive); in assay [2] it was > 67.6 µM (inactive).
`COc1cccc2c(O)c(C/C=C(/C)Cl)c(C)nc12`: in assay [26], the 50% inhibitory concentration (IC50) is recorded as 75 µM (not active).
With `COc1ccc2c3c(n(C)c2c1)[C@H](CO)NCC31CCN(CC2CCCC2)CC1`, the AC50 in [14] was 0.449 µM (active); in assay [15], 46.3 µM (active); in assay [16] it was 0.738 µM (active); in assay [17], 0.481 µM (active); in [18], 35.5 µM (active); in assay [19] it was 0.425 µM (active).
On to `C[C@@H]1CN([C@@H](C)CO)S(=O)(=O)c2ccc(/C=C/c3ccccc3)cc2O[C@H]1CN(C)C(=O)c1ccc2c(c1)OCO2`, for which the AC50 in assay [14] is 2.96 µM (active); in [15], 87.3 µM (active); in assay [16], 2.43 µM (active); in assay [17], 2.09 µM (active); in [19] it was 1.18 µM (active).
For `COC(=O)c1nn(-c2ccccc2)ccc1=O`, in [13], the AC50 is 5.56 µM (active).
Regarding `O=C(NC(=S)Nc1ccc2c(c1)OCCO2)c1cccc2ccccc12`, the IC50 in [5] and in assay [6] was > 69.5 µM (inactive) throughout.
